Assay results from patent US8637681B2, “Pyrrolyl substituted dihydroindol-2-one derivatives, preparation methods and uses thereof” (Qilu Pharmaceutical Co., Ltd., priority 2010, dated 2014).

Assays:
[1] = Cytotoxicity test (SRB), Hela; type: cell-based; details: human, Hela cervical cancer cells
Method: Cytotoxicity of the compounds of the present invention was tested with human non-small cell lung cancer cells A549, human cervical cancer Hela cells, human skin cancer cells A431. The test was performed by referring to the method described by Rusnak et al (Rusnak D. W., et al., Cell Prolif., 2007, 40, 580-94). […] Trypsin/ethylenediamine tetraacetic acid (EDTA) were used to harvest cells in cell culture bottle. The cells were added to a 96-well cell culture plate, 4000/well (0.1 ml medium), adhering wall overnight, 0.1 ml of the diluted solution of the compounds to be tested was added, the final concentration of DMSO was 0.25%. The cell culture plate was incubated at 37° C., 5% CO2 conditions for 72 h. […] The absorption at a wavelength of 540 nm was measured. The IC50 (μM) of the compound was calculated using Logit method.

[2] = test system: arterial ring angiogenesis in rats; assay: Inhibitory actions on arterial ring angiogenesis in rats; type: cell-based; details: Rattus norvegicus, area covered by micrangiums vs control well, read-out: Inhibitory rate (%); for inhibition at 0.2 µg/mL: 0.2 μg/ml; for inhibition at 1 µg/mL: 1 μg/ml; for inhibition at 5 µg/mL: 5 μg/ml
Method: This experiment was conducted by referring to the method described by R. F. Nicosia et al (Nicosia, R. F., et al. Am J Pathol., 1997, 151, 1379-1386). Rats were executed by cervical dislocation. The thoracic aorta was carefully separated, and placed in a container with physiological saline. The excess tissues were carefully cut off. The blood vessels were cut with a pair of ophthalmic scissors to form 1 mm thick vascular ring slices. To a pre-cooled 96-well cell culture plate, one separated vascular ring was placed in the center of each well. 70 μl of pre-molten Matrigel was carefully added to cover the vascular ring, which was incubated at 37° C. for 1 h so as to solidify it. […] The sample was placed in incubator for conventional culture, and each compound was tested at least in two repeated wells, and each test was repeated twice. […] The fresh culture medium was replaced every 3 days, and the drug was changed at the same time. The survival status of vascular rings was observed under microscope, and pictures were taken at the same time. Image Pro Plus software was used to calculate the area covered by micrangiums. The average inhibition rate was calculated by using the formula: inhibition rate (%)=(area of control well−area of drug well)/area of control well×100%.

[3] = test system: human colon cancer HT 29 transplanted tumor; assay: Nude mice transplanted tumor test; type: in vivo, female Balb/cA nude mice; parameters: key to d21 Vave ± SD (average tumor volume): tumor volume TV = ½×a×b² (a, b = major, minor diameter), in mm³; details: for Dead animal number / inhibition in vivo at 80 mg/kg / d21 Wave ± SD (average bodyweight of nude mice) / d21 Vave ± SD (average tumor volume) / d21 RTV ± SD (relative tumor volume): 80 mg/kg intragastrically each day for 20 days; for Dead animal number: dead/total animals; for Activity of inhibiting HT-29 transplanted tumor in vivo (in words): 80 mg/kg, compared with positive control Sunitinib; for inhibition in vivo at 80 mg/kg: Mus musculus, HT-29, po, 504 h, (1−T/C)×100%, read-out: Tumor inhibition rate d21 (%); for inhibition in vivo at 80 mg/kg / d21 Wave ± SD (average bodyweight of nude mice) / d21 Vave ± SD (average tumor volume) / d21 RTV ± SD (relative tumor volume): d21; for d0 Wave ± SD (average bodyweight of nude mice): d0, at grouping before administration (baseline); for d21 Vave ± SD (average tumor volume): HT 29 in nude mice; for d21 RTV ± SD (relative tumor volume): RTV=Vt/V0
Method: The nude mice transplanted tumor test used female Balb/cA nude mice, and tumor strains were human colon cancer HT 29 strains.
Under sterile condition, eugonic tumor tissues stage were cut into pieces of about 1.5 mm^3, and inoculated at right axillary fossa of the nude mice. The transplanted tumor diameter was measured by vernier caliper, and the animals were randomly grouped after the tumors grew to about 120 mm^3. The positive control group and the compounds group in a dosage of 80 mg/kg were administered intragastrically each day for consecutive 20 days. The negative control group was given equivalent amount of injection water containing 0.1% Tween 80. Tumor diameters and the bodyweight of mice were measured 2-3 times every week. The evaluation indexes observed in the test include relative tumor proliferation rate, bodyweight and general states. The formulation for calculating tumor volume (TV) is: TV=½×a×b^2, wherein a, b represent major diameter and minor diameter of tumor; Relative tumor volume (RTV) was calculated according the results of measurement by the following formula: RTV=Vt/V0, wherein V0 is tumor volume measured when dividing groups for administration, and Vt is tumor volume measured after each administration.

[4] = Cytotoxicity test (SRB), A431; type: cell-based; details: human, A431 skin cancer cells
Method: (§1) Cytotoxicity of the compounds of the present invention was tested with human non-small cell lung cancer cells A549, human cervical cancer Hela cells, human skin cancer cells A431. The test was performed by referring to the method described by Rusnak et al (Rusnak D. W., et al., Cell Prolif., 2007, 40, 580-94).
(§2) In Dulbecco's Modified Eagle Medium (DMEM) comprising 10% fetal bovine serum, 2 mM glutamine and non-essential amino acids, cells were cultured at 37° C. in 5% CO2 cell incubator. Trypsin/ethylenediamine tetraacetic acid (EDTA) were used to harvest cells in cell culture bottle. The cells were added to a 96-well cell culture plate, 4000/well (0.1 ml medium), adhering wall overnight, 0.1 ml of the diluted solution of the compounds to be tested was added, the final concentration of DMSO was 0.25%. The cell culture plate was incubated at 37° C., 5% CO2 conditions for 72 h. The change of cellular morphology was observed under microscope, and then 50 μl of 50% (mass/volume) trichloroacetic acid (TCA) was added to each well to fix cells. The final concentration of TCA was 10%. It stood for 5 min, than was placed in 4° C. refrigerator for 1 h, the wells of the culture plate were washed with deionized water for 5 times to remove TCA, drained, dried in air until no wet trace was observed. 100 μl of 0.4% (mass/volume) SRB was added to each well, stood at room temperature for 10 min. The liquid in each well was discarded, and then the wells were washed with 1% acetic acid for 5 times, dried in air, extracted with 150 μl of 10 mM Tris base (trihydroxymethylaminomethane, pH 10.5). The absorption at a wavelength of 540 nm was measured. The IC50 (μM) of the compound was calculated using Logit method.

[5] = Cytotoxicity test (SRB), A549; type: cell-based; details: human, A549 non-small cell lung cancer cells
Method: as §1, §2

CCN(CC)CC(=O)Nc1c(C)[nH]c(/C=C2\C(=O)Nc3ccc(Cl)cc32)c1C [Compound 21, N-{5-[5-chloro-2-oxo-1,2-dihydro-indol-(3Z)-ylidenemethyl]-2,4-dimethyl-1H-pyrrol-3-yl}-2-(N,N-diethylamino)acetamide]
IC50 at 72 h [1]: > 30 µM
inhibition at 0.2 µg/mL [2]: 95%
inhibition at 1 µg/mL [2]: 100%
inhibition at 5 µg/mL [2]: 100%
Dead animal number [3]: 0/6
Activity of inhibiting HT-29 transplanted tumor in vivo (in words) [3]: inhibitory activity comparable to the positive control Sunitinib
inhibition in vivo at 80 mg/kg [3]: 89%
d0 Wave ± SD (average bodyweight of nude mice) [3]: 18.9 ± 0.47
d21 Wave ± SD (average bodyweight of nude mice) [3]: 19.3 ± 0.76
d21 Vave ± SD (average tumor volume) ([3]; in mm³ (unit assumed)): 94.3 ± 37.2
d21 RTV ± SD (relative tumor volume) [3]: 0.79 ± 0.63
IC50 at 72 h [4]: > 30 µM
IC50 at 72 h [5]: > 30 µM

Cc1[nH]c(/C=C2\C(=O)Nc3ccc(F)cc32)c(C)c1NC(=O)CCN1CCN(C)CC1 [Compound 11, N-{5-[5-fluoro-2-oxo-1,2-dihydro-indol-(3Z)-ylidenemethyl]-2,4-dimethyl-1H-pyrrol-3-yl}-3-(4-methylpiperazin-1-yl)propionamide]
IC50 at 72 h [1]: > 30 µM
inhibition at 0.2 µg/mL [2]: 99%
inhibition at 1 µg/mL [2]: 100%
inhibition at 5 µg/mL [2]: 100%
Dead animal number [3]: 0/6
Activity of inhibiting HT-29 transplanted tumor in vivo (in words) [3]: inhibitory activity comparable to the positive control Sunitinib
inhibition in vivo at 80 mg/kg [3]: 88.5%
d0 Wave ± SD (average bodyweight of nude mice) [3]: 18.5 ± 0.55
d21 Wave ± SD (average bodyweight of nude mice) [3]: 20.5 ± 0.49
d21 Vave ± SD (average tumor volume) ([3]; in mm³ (unit assumed)): 96.7 ± 35.4
d21 RTV ± SD (relative tumor volume) [3]: 0.83 ± 0.52
IC50 at 72 h [4]: > 30 µM
IC50 at 72 h [5]: > 30 µM

Cc1[nH]c(/C=C2\C(=O)Nc3ccc(F)cc32)c(C)c1NC(=O)CN(C)C [Compound 22, N-{5-[5-fluoro-2-oxo-1,2-dihydro-indol-(3Z)-ylidenemethyl]-2,4-dimethyl-1H-pyrrol-3-yl}-2-(N,N-dimethylamino)acetamide]
IC50 at 72 h [1]: > 30 µM
inhibition at 0.2 µg/mL [2]: 90%
inhibition at 1 µg/mL [2]: 100%
inhibition at 5 µg/mL [2]: 100%
Dead animal number [3]: 0/6
inhibition in vivo at 80 mg/kg [3]: 88.1%
d0 Wave ± SD (average bodyweight of nude mice) [3]: 19.7 ± 0.38
d21 Wave ± SD (average bodyweight of nude mice) [3]: 20.1 ± 0.35
d21 Vave ± SD (average tumor volume) ([3]; in mm³ (unit assumed)): 104.6 ± 43.6
d21 RTV ± SD (relative tumor volume) [3]: 0.86 ± 0.54
IC50 at 72 h [4]: > 30 µM
IC50 at 72 h [5]: > 30 µM

CCN(CC)CC(=O)Nc1c(C)[nH]c(/C=C2\C(=O)Nc3ccc([N+](=O)[O-])cc32)c1C [Compound 26, N-{5-[5-nitro-2-oxo-1,2-dihydro-indol-(3Z)-ylidenemethyl]-2,4-dimethyl-1H-pyrrol-3-yl}-2-(N,N-diethylamino)acetamide]
IC50 at 72 h [1]: 4.62 µM
inhibition at 0.2 µg/mL [2]: 93%
inhibition at 1 µg/mL [2]: 100%
inhibition at 5 µg/mL [2]: 100%
Dead animal number [3]: 0/6
inhibition in vivo at 80 mg/kg [3]: 64.8%
d0 Wave ± SD (average bodyweight of nude mice) [3]: 19.3 ± 0.55
d21 Wave ± SD (average bodyweight of nude mice) [3]: 20.5 ± 0.35
d21 Vave ± SD (average tumor volume) [3]: 305.6 ± 46.7
d21 RTV ± SD (relative tumor volume) [3]: 2.53 ± 0.43
IC50 at 72 h [4]: > 30 µM
IC50 at 72 h [5]: > 30 µM

CCN(CC)CC(=O)Nc1c(C)[nH]c(/C=C2\C(=O)Nc3cc(OC)ccc32)c1C [Compound 23, N-{5-[6-methoxy-2-oxo-1,2-dihydro-indol-(3Z)-ylidenemethyl]-2,4-dimethyl-1H-pyrrol-3-yl}-2-(N,N-diethylamino)acetamide]
IC50 at 72 h [1]: > 30 µM
inhibition at 0.2 µg/mL [2]: 90%
inhibition at 1 µg/mL [2]: 100%
inhibition at 5 µg/mL [2]: 100%
IC50 at 72 h [4]: > 30 µM
IC50 at 72 h [5]: > 30 µM

CCN(CC)CC(=O)Nc1c(C)[nH]c(/C=C2\C(=O)Nc3cc(C)ccc32)c1C [Compound 27, N-{5-[6-methyl-2-oxo-1,2-dihydro-indol-(3Z)-ylidenemethyl]-2,4-dimethyl-1H-pyrrol-3-yl}-2-(N,N-diethylamino)acetamide]
IC50 at 72 h [1]: > 30 µM
inhibition at 0.2 µg/mL [2]: 78%
inhibition at 1 µg/mL [2]: 95%
inhibition at 5 µg/mL [2]: 100%
IC50 at 72 h [4]: > 30 µM
IC50 at 72 h [5]: > 30 µM

Cc1[nH]c(/C=C2\C(=O)Nc3ccc(F)cc32)c(C)c1NC(=O)CCN1CCCC1 [Compound 14, N-{5-[5-fluoro-2-oxo-1,2-dihydro-indol-(3Z)-ylidenemethyl]-2,4-dimethyl-1H-pyrrol-3-yl}-3-(tetrahydropyrrol-1-yl)propionamide]
IC50 at 72 h [1]: > 30 µM
inhibition at 0.2 µg/mL [2]: 88%
inhibition at 1 µg/mL [2]: 100%
inhibition at 5 µg/mL [2]: 100%
IC50 at 72 h [4]: > 30 µM
IC50 at 72 h [5]: > 30 µM

Cc1[nH]c(/C=C2\C(=O)Nc3ccc(F)cc32)c(C)c1NC(=O)CN1CCN(C)CC1 [Compound 15, N-{5-[5-fluoro-2-oxo-1,2-dihydro-indol-(3Z)-ylidenemethyl]-2,4-dimethyl-1H-pyrrol-3-yl}-2-(4-methylpiperazin-1-yl)acetamide]
IC50 at 72 h [1]: > 30 µM
inhibition at 0.2 µg/mL [2]: 89%
inhibition at 1 µg/mL [2]: 100%
inhibition at 5 µg/mL [2]: 100%
IC50 at 72 h [4]: > 30 µM
IC50 at 72 h [5]: > 30 µM

CCN(CC)CC(=O)Nc1c(C)[nH]c(/C=C2\C(=O)Nc3ccc(NS(C)(=O)=O)cc32)c1C [Compound 25, N-{5-[5-methylsulfonylamino-2-oxo-1,2-dihydro-indol-(3Z)-ylidenemethyl]-2,4-dimethyl-1H-pyrrol-3-yl}-2-(N,N-diethylamino)acetamide]
IC50 at 72 h [1]: > 30 µM
inhibition at 0.2 µg/mL [2]: 89%
inhibition at 1 µg/mL [2]: 100%
inhibition at 5 µg/mL [2]: 100%
IC50 at 72 h [4]: 6.57 µM
IC50 at 72 h [5]: > 30 µM
